Among the data in PubChem BioAssay AID192 (DTP/NCI, 2004) are T/C values, retold here.

For the assay, the system named is BDF1 mice, B16 melanoma ip, median survival T/C. The experiment in a line: NCI In Vivo Anticancer Drug Screen. Data for tumor model B16 Melanoma (intraperitoneal) in B6D2F1 (BDF1) mice. The settings on record: endpoint: median survival time, higher = longer survival. Put shortly: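 The ratio T/C compares compound-treated mice with vehicle-treated controls, using survival or tumor size as the endpoint in a transplantable tumor model.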

[1] abbreviates: dose: 100.0 mg/kg/injection, schedule: Q01DX009 (ip), vehicle: saline.
[2] abbreviates: dose: 200.0 mg/kg/injection, schedule: Q01DX009 (ip), vehicle: saline.
Where [3] appears, read: dose: 400.0 mg/kg/injection, schedule: Q01DX009 (ip), vehicle: saline.
[4] abbreviates: dose: 50.0 mg/kg/injection, schedule: Q01DX009 (ip), vehicle: saline with Tween-80.
[5] abbreviates: dose: 100.0 mg/kg/injection, schedule: Q01DX009 (ip), vehicle: saline with Tween-80.
Where [6] appears, read: dose: 100.0 mg/kg/injection, schedule: Q01DX009 (ip), vehicle: Klucel (hydroxypropylcellulose) (HPC).
[7] abbreviates: dose: 200.0 mg/kg/injection, schedule: Q01DX009 (ip), vehicle: Klucel (hydroxypropylcellulose) (HPC).
Where [8] appears, read: dose: 400.0 mg/kg/injection, schedule: Q01DX009 (ip), vehicle: Klucel (hydroxypropylcellulose) (HPC).
Where [9] appears, read: dose: 50.0 mg/kg/injection, schedule: Q01DX009 (ip), vehicle: saline.

Each structure is given as a SMILES string. Several values for one entry are separate records, joined by “and”; a condition that tells them apart may be missing. Identical values can stand only once. Toxic doses and inconclusive results are not listed. Square brackets hold non-standard residues; d marks the D form. Peptide text beside a SMILES is read from it. ξ: configuration not given here. ξF = NC(Cc1ccccc1)C(=O)O

`COCC1OC(OC2C3=C(C(C)C)CCC3(C)/C=C3\C(CCC3(O)COC)C(C)C2O)C(O)C2OC3OC12OC3(C)C1CO1` (stereo not drawn): the T/C is, setting by setting: (dose: 1.5 mg/kg/injection, schedule: Q01DX009 (ip), vehicle: Klucel (hydroxypropylcellulose) (HPC)) 93 % of control; (dose: 3.0 mg/kg/injection, schedule: Q01DX009 (ip), vehicle: Klucel (hydroxypropylcellulose) (HPC)) 89 % of control; (dose: 6.0 mg/kg/injection, schedule: Q01DX009 (ip), vehicle: Klucel (hydroxypropylcellulose) (HPC)) 98 % of control; (dose: 12.0 mg/kg/injection, schedule: Q01DX009 (ip), vehicle: Klucel (hydroxypropylcellulose) (HPC)) 91 % of control; (dose: 24.0 mg/kg/injection, schedule: Q01DX009 (ip), vehicle: Klucel (hydroxypropylcellulose) (HPC)) 105 % of control.

Turning to `ClC1CCC[N-]C1.ClC1CCC[N-]C1.[Cl][Pt+2][Cl]` (stereo not drawn), the T/C is, setting by setting: (dose: 0.78 mg/kg/injection, schedule: Q01DX009 (ip), vehicle: saline) 100 % of control; (dose: 1.56 mg/kg/injection, schedule: Q01DX009 (ip), vehicle: saline) 95 % of control; (dose: 3.13 mg/kg/injection, schedule: Q01DX009 (ip), vehicle: saline) 96 % of control; (dose: 6.25 mg/kg/injection, schedule: Q01DX009 (ip), vehicle: saline) 100 % of control; (dose: 12.5 mg/kg/injection, schedule: Q01DX009 (ip), vehicle: saline) 95 % of control.

On to `NCC(=O)NCC(=O)NC(Cc1ccccc1)C(=O)O` (stereo not drawn) (H-Gly-Gly-[ξF]-OH), for which the T/C is, setting by setting: under setting [1], 90 % of control; (dose: 100.0 mg/kg/injection, schedule: Q04DX003 (ip), vehicle: saline) 92 % of control; under setting [2], 90 % of control; (dose: 200.0 mg/kg/injection, schedule: Q04DX003 (ip), vehicle: saline) 97 % of control; under setting [3], 93 % of control; (dose: 400.0 mg/kg/injection, schedule: Q04DX003 (ip), vehicle: saline) 90 % of control.

With `COC1=C(N)C(=O)c2nc(-c3nc(C(=O)O)c(C)c(-c4ccc(OC)c(OC)c4O)c3N)ccc2C1=O`, the T/C reads like this: (dose: 0.03 mg/kg/injection, schedule: Q01DX009 (ip), vehicle: saline) 113 % of control; (dose: 0.05 mg/kg/injection, schedule: Q01DX009 (ip), vehicle: saline) 102 % of control; (dose: 0.1 mg/kg/injection, schedule: Q01DX009 (ip), vehicle: saline) 102 % of control; (dose: 0.2 mg/kg/injection, schedule: Q01DX009 (ip), vehicle: saline) 113 % of control; (dose: 0.4 mg/kg/injection, schedule: Q01DX009 (ip), vehicle: saline) 100 % of control; (dose: 25.0 micrograms/kg/injection, schedule: Q01DX009 (ip), vehicle: saline) 100 % of control. Further, the T/C runs as follows: (dose: 50.0 micrograms/kg/injection, schedule: Q01DX009 (ip), vehicle: saline) 111 % of control; (dose: 100.0 micrograms/kg/injection, schedule: Q01DX009 (ip), vehicle: saline) 112 % of control; (dose: 200.0 micrograms/kg/injection, schedule: Q01DX009 (ip), vehicle: saline) 104 % of control.

Take `OC[CH2][Hg][Br]`: the T/C is, setting by setting: (dose: 0.37 mg/kg/injection, schedule: Q01DX009 (ip), vehicle: saline) 97 % of control; (dose: 0.75 mg/kg/injection, schedule: Q01DX009 (ip), vehicle: saline) 94 % of control; (dose: 1.5 mg/kg/injection, schedule: Q01DX009 (ip), vehicle: saline) 94 % of control; (dose: 3.0 mg/kg/injection, schedule: Q01DX009 (ip), vehicle: saline) 93 % of control.

On to `O=C(COc1ccccc1)CC(O)(C(F)(F)F)C(F)(F)F`, for which the T/C (dose: 100.0 mg/kg/injection, schedule: Q04DX003 (ip), vehicle: saline with Tween-80) was 100 % of control; the T/C (dose: 200.0 mg/kg/injection, schedule: Q04DX003 (ip), vehicle: saline with Tween-80) was 92 % of control; the T/C (dose: 400.0 mg/kg/injection, schedule: Q04DX003 (ip), vehicle: saline with Tween-80) is 97 % of control.

With `C=CC1CN2CCC1CC2C(O)c1ccnc2ccc(OC)cc12` (stereo not drawn) (tested in a mixture with another compound), the T/C was 107 % of control under setting [4]; 107 % of control under setting [5]; 101 % of control (dose: 200.0 mg/kg/injection, schedule: Q01DX009 (ip), vehicle: saline with Tween-80).

Consider `CCCCCCCCCCCCO[P+](=O)OCCCCCCCCCCCC`, for which the T/C under setting [1] was 88 % of control.

On to `NC(=O)c1cc([N+](=O)[O-])c(Cl)c([N+](=O)[O-])c1Cl`, for which the T/C was 93 % of control (dose: 4.0 mg/kg/injection, schedule: Q01DX009 (ip), vehicle: Klucel (hydroxypropylcellulose) (HPC)) and 92 % of control (dose: 8.0 mg/kg/injection, schedule: Q01DX009 (ip), vehicle: Klucel (hydroxypropylcellulose) (HPC)).

For the compound `O=NN(CCF)C(=O)NC1CCS(=O)(=O)CC1`, the T/C is 173 % of control (dose: 3.75 mg/kg/injection, schedule: Q01DX001 (ip), vehicle: saline); 241 % of control (dose: 7.5 mg/kg/injection, schedule: Q01DX001 (ip), vehicle: saline); 260 % of control (dose: 15.0 mg/kg/injection, schedule: Q01DX001 (ip), vehicle: saline); 256 % of control (dose: 30.0 mg/kg/injection, schedule: Q01DX001 (ip), vehicle: saline); 260 % of control (dose: 60.0 mg/kg/injection, schedule: Q01DX001 (ip), vehicle: saline).

As to `CCCC(=O)OCC1OC(n2cnc3c(=S)nc(N)[nH]c32)C(OC(=O)CCC)C1OC(=O)CCC` (stereo not drawn), the T/C runs as follows: (dose: 0.78 mg/kg/injection, schedule: Q01DX009 (ip), vehicle: Klucel (hydroxypropylcellulose) (HPC)) 106 % of control; (dose: 1.56 mg/kg/injection, schedule: Q01DX009 (ip), vehicle: Klucel (hydroxypropylcellulose) (HPC)) 112 % of control; (dose: 3.12 mg/kg/injection, schedule: Q01DX009 (ip), vehicle: Klucel (hydroxypropylcellulose) (HPC)) 113 % of control; (dose: 6.25 mg/kg/injection, schedule: Q01DX009 (ip), vehicle: Klucel (hydroxypropylcellulose) (HPC)) 103 % of control and 106 % of control; (dose: 12.5 mg/kg/injection, schedule: Q01DX009 (ip), vehicle: Klucel (hydroxypropylcellulose) (HPC)) 87 % of control.

On to `CCOC(=O)C1CN(S(=O)(=O)c2ccc(C)cc2)c2ccccc2C(=O)C1/C(=C/C(=O)OC)C(=O)OC` (stereo not drawn), for which the T/C reads like this: (dose: 100.0 mg/kg/injection, schedule: Q04DX003 (ip), vehicle: Klucel (hydroxypropylcellulose) (HPC)) 92 % of control; (dose: 200.0 mg/kg/injection, schedule: Q04DX003 (ip), vehicle: Klucel (hydroxypropylcellulose) (HPC)) 90 % of control; (dose: 400.0 mg/kg/injection, schedule: Q04DX003 (ip), vehicle: Klucel (hydroxypropylcellulose) (HPC)) 88 % of control.

As for `NC(=O)c1ccccc1NC(=O)COc1ccc(Cl)cc1`, the T/C under setting [6] was 106 % of control, the T/C under setting [7] is 106 % of control and the T/C under setting [8] is 100 % of control.

As for `CCN(CC)CCNc1ccc(C)c2sc3ccc(O)cc3c(=O)c12`, the T/C is 110 % of control (dose: 12.5 mg/kg/injection, schedule: Q01DX009 (ip), vehicle: saline with Tween-80); 161 % of control (dose: 25.0 mg/kg/injection, schedule: Q01DX009 (ip), vehicle: saline with Tween-80); 182 % of control under setting [4]; 172 % of control under setting [5].

Regarding `CN(C)CCC#N`, the T/C runs as follows: under setting [9], 113 % of control and 122 % of control; under setting [1], 110 % of control and 113 % of control; under setting [2], 105 % of control and 122 % of control.

Consider `O=CC1CO1` (stereo not drawn), for which the T/C by setting is: (dose: 12.5 mg/kg/injection, schedule: Q01DX009 (ip), vehicle: saline sonified) 90 % of control; (dose: 25.0 mg/kg/injection, schedule: Q01DX009 (ip), vehicle: saline sonified) 90 % of control; (dose: 50.0 mg/kg/injection, schedule: Q01DX009 (ip), vehicle: saline sonified) 97 % of control.

`CC(=O)OCc1cccnc1`: the T/C reads like this: under setting [9], 97 % of control; under setting [1], 101 % of control; under setting [2], 106 % of control; under setting [3], 107 % of control.

Take `O=C(Nc1nccs1)Nc1ccccc1C(F)(F)F`: the T/C is 103 % of control (dose: 25.0 mg/kg/injection, schedule: Q01DX009 (ip), vehicle: Klucel (hydroxypropylcellulose) (HPC)); 99 % of control (dose: 50.0 mg/kg/injection, schedule: Q01DX009 (ip), vehicle: Klucel (hydroxypropylcellulose) (HPC)); 97 % of control under setting [6]; 103 % of control under setting [7]; 99 % of control under setting [8].
